Data on nine compounds can be found in patent US20170321214A1, “DEAD GUIDES FOR CRISPR TRANSCRIPTION FACTORS” (The Broad Institute Inc., priority 2014, published 2017).

In data set [1] the test system is Factor VII. The following applies: LNP siRNA systems containing these lipids; cited from earlier work.
For data set [2], the system named is HBG1/2 promoter. Put plainly: Off-target transcriptional activation using RNAseq. It counts as cell-based. How it is done:
FIG. 7A-7C: The plots of FIG. 7 illustrate embodiments in which dRNAs can specifically upregulate gene expression, and have a specificity profile similar to 20 bp sgRNA activators. Sequences targeted to the HBG1/2 promoter were tested for off-target transcriptional activation using RNAseq. 20 nt sgRNAs with MS2 binding loops were co-transfected with dCas9 and the MPH activation complex. […] (In all cases, N=3 replicates/group).

Data set [3] deals with dystrophin. The following applies: across 48 weeks, average; cited from earlier work.
Setting [4] is: 20 nt sgRNA with MS2 loops + dCas9 + MPH.

Regarding “1,2-dilinoleyloxy-keto-N,N-dimethyl-3-aminopropane [DLinKDMA]”, in data set [1], the “gene silencing potency series” value is reported as “DLinKC2-DMA>DLinKDMA>DLinDMA>>DLinDAP”.

In the case of “SEQ ID NO 125: dRNA targeted to the HBG1/2 promoter, first guide (guide GGGATGAAGAATAAA; listed as DNA, chemistry not given here)”, the “significantly upregulated genes apart from HBG1/2” value in data set [2] (dRNA + active Cas9 + MPH) is “Zero”.

On to `CCCCC/C=C\C/C=C\CCCCCCCCC1(CCCCCCCC/C=C\C/C=C\CCCCC)OCC(CCN(C)C)O1` (stereo not drawn) [DLinKC2-DMA, 1,2-dilinoleyl-4-(2-dimethylaminoethyl)-[1,3]-dioxolane], for which, in data set [1], the “gene silencing potency series” value is given as “DLinKC2-DMA>DLinKDMA>DLinDMA>>DLinDAP”.

As for eteplirsen, the “dystrophin positive fibers compared to baseline” value in data set [3] is recorded as 47%.

Consider “SEQ ID NO 120: 20 nt sgRNA with MS2 binding loops targeted to the HBG1/2 promoter, first guide (guide GGCTAGGGATGAAGAATAAA; listed as DNA, chemistry not given here)”, for which, in data set [2] (setting [4]), the “significantly upregulated genes apart from HBG1/2” value is listed as “Zero”.

As for `CCCCC/C=C\C/C=C\CCCCCCCCOCC(CN(C)C)OCCCCCCCC/C=C\C/C=C\CCCCC` (stereo not drawn) [DLinDMA, 1,2-dilinoleyloxy-3-N,N-dirnethylamiopropane], the “gene silencing potency series” value in data set [1] is reported as “DLinKC2-DMA>DLinKDMA>DLinDMA>>DLinDAP”.

Consider “SEQ ID NO 90: 20 nt sgRNA with MS2 binding loops targeted to the HBG1/2 promoter, second guide (guide CCAGTGAGGCCAGGGGCCGG; listed as DNA, chemistry not given here)”, for which the “significantly upregulated genes apart from HBG1/2” value in data set [2] (setting [4]) is 55.

Take “SEQ ID NO 97: dRNA targeted to the HBG1/2 promoter, second guide (guide GAGGCCAGGGGCCGG; listed as DNA, chemistry not given here)”: the “significantly upregulated genes apart from HBG1/2” value in data set [2] (dRNA + active Cas9 + MPH) worked out at 31.

Consider `CCCCC/C=C\C/C=C\CCCCCCCC(=O)OCC(CN(C)C)OC(=O)CCCCCCC/C=C\C/C=C\CCCCC` (stereo not drawn) [DLinDAP, 1,2-dilineoyl-3-dimethylammonium-propane], for which the “gene silencing potency series” value in data set [1] is reported as “DLinKC2-DMA>DLinKDMA>DLinDMA>>DLinDAP”.
